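Growth conditions: 96-well plates. Treatment: test compound, 48 hours, 5 concentrations. Analysis: linear interpolation between bracketing concentrations; unreached endpoints set to highest concentration. Abbreviation: GI50, concentration required for 50% inhibition of growth.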 Active and inactive are the calls of the source. Rule as the data show it: active = GI50 up to about 1.1 µM and inactive = higher.
Assays:
Test in all cases: NCI-60 cell line screen, 48 h
BT-549 = tested on: BT-549
COLO 205 = tested on: COLO 205
EKVX = tested on: EKVX
HCT-116 = tested on: HCT-116
HL-60 = tested on: HL-60
Hs-578T = tested on: Hs-578T
KM12 = tested on: KM12
LOX IMVI = tested on: LOX IMVI
M14 = tested on: M14
MCF7 = tested on: MCF7
NCI-H460 = tested on: NCI-H460
OVCAR-3 = tested on: OVCAR-3
OVCAR-4 = tested on: OVCAR-4
OVCAR-8 = tested on: OVCAR-8
RPMI-8226 = tested on: RPMI-8226
SNB-75 = tested on: SNB-75
T47D = tested on: T47D
UACC-62 = tested on: UACC-62

Row | SMILES | GI50 (BT-549) | GI50 (COLO 205) | GI50 (EKVX) | GI50 (HCT-116) | GI50 (HL-60) | GI50 (Hs-578T) | GI50 (KM12) | GI50 (LOX IMVI) | GI50 (M14) | GI50 (MCF7) | GI50 (NCI-H460) | GI50 (OVCAR-3) | GI50 (OVCAR-4) | GI50 (OVCAR-8) | GI50 (RPMI-8226) | GI50 (SNB-75) | GI50 (T47D) | GI50 (UACC-62)
1 | CC1(C)N[PH]2(Nc3ccccc3O2)OC1=O | 18.6 µM (inactive) | 17.8 µM (inactive) | 84.3 µM (inactive) | > 100 µM (inactive) | 44.3 µM (inactive) | > 100 µM (inactive) | > 100 µM (inactive) | 18.3 µM (inactive) | 38.5 µM (inactive) | 22.8 µM (inactive) | 45.4 µM (inactive) | > 100 µM (inactive) | > 100 µM (inactive) | 82.8 µM (inactive) | 5.32 µM (inactive) | > 100 µM (inactive) | > 100 µM (inactive) | 18.6 µM (inactive)
2 | O=C1C=C(c2ccccc2)OC1C1Sc2ccccc2NC1=O (configuration not stated) | 14.6 µM (inactive) | 7.73 µM (inactive) | 14 µM (inactive) | 4.5 µM (inactive) | 3.15 µM (inactive) | 6.11 µM (inactive) | 7.76 µM (inactive) | 13.6 µM (inactive) | 8.67 µM (inactive) | 3.81 µM (inactive) | 2.74 µM (inactive) | 3.97 µM (inactive) | 18.7 µM (inactive) | 9.31 µM (inactive) | 3.66 µM (inactive) | 5.11 µM (inactive) | 10.4 µM (inactive) | 11.9 µM (inactive)
3 | CCCC(=O)OCC1OC(n2cc(F)c(=O)[nH]c2=O)C(F)C1O (configuration not stated) | 13.9 µM (inactive) | 24.5 µM (inactive) | > 71.4 µM (inactive) | > 22.4 µM (inactive) | > 100 µM (inactive) | 99.3 µM (inactive) | > 100 µM (inactive) | 11.4 µM (inactive) | 18.8 µM (inactive) | 0.456 µM (active) | 2.86 µM (inactive) | 31 µM (inactive) | > 100 µM (inactive) | > 38.5 µM (inactive) | 6.3 µM (inactive) | > 55 µM (inactive) | > 100 µM (inactive) | > 31.5 µM (inactive)
4 | OC1(C(F)(F)F)OCCN=C1C(F)(F)F (configuration not stated) | 56.2 µM (inactive) | > 100 µM (inactive) | > 100 µM (inactive) | 51.5 µM (inactive) | 37.7 µM (inactive) | 17.2 µM (inactive) | > 100 µM (inactive) | > 100 µM (inactive) | > 100 µM (inactive) | > 100 µM (inactive) | > 100 µM (inactive) | 52 µM (inactive) | > 100 µM (inactive) | 53.5 µM (inactive) | > 100 µM (inactive) | > 100 µM (inactive) | > 100 µM (inactive) | > 100 µM (inactive)
5 | C/C(=C\COP(=O)(O)CP(=O)(O)O)CC/C=C(\C)CNc1ccccc1 | 14.6 µM (inactive) | > 100 µM (inactive) | 15.7 µM (inactive) | > 100 µM (inactive) | > 100 µM (inactive) | > 100 µM (inactive) | > 100 µM (inactive) | > 100 µM (inactive) | > 100 µM (inactive) | > 100 µM (inactive) | > 100 µM (inactive) | > 100 µM (inactive) |  | > 100 µM (inactive) | > 100 µM (inactive) | > 100 µM (inactive) | > 100 µM (inactive) | > 100 µM (inactive)
6 | O=C(O)/C=C(/CC(=O)O)C(=O)O | 21.1 µM (inactive) | 17.6 µM (inactive) | 19.3 µM (inactive) | 18.2 µM (inactive) | 21 µM (inactive) | 19.9 µM (inactive) | 23.8 µM (inactive) | 22.7 µM (inactive) | 18.7 µM (inactive) | 19.3 µM (inactive) | 35.2 µM (inactive) | 15.7 µM (inactive) | 25.8 µM (inactive) | 21.6 µM (inactive) | 14.9 µM (inactive) | 14.1 µM (inactive) | 20.2 µM (inactive) | 18.2 µM (inactive)
